Assay results: patent US8178506B2, “Oligomeric compounds and compositions for use in modulation of small non-coding RNAs” (Regulus Therapeutics Inc., priority 2003, dated 2012)
In the oligonucleotide strings, read from the 5' end, every base follows the letter of its sugar. An asterisk marks phosphorothioate; unmarked linkages are phosphodiester. Other units and linkages are bracketed, terminal groups are in braces. A string of capitals states the bases alone. e = 2'-O-(2-methoxyethyl) (MOE); [5mC] = 5-methylcytosine

Legend:
Type in all cases: cell-based, human
[1] = system: PPARγ; test: PPARγ mRNA expression in adipocytes (real-time PCR)
Experimental: (§1) Expression of the four hallmark genes, HSL, aP2, Glut4, and PPARγ, is also measured in adipocytes transfected with oligomeric compounds of the invention. Cells are lysed on day nine post-transfection and total RNA is harvested. The amount of total RNA in each sample is determined using a Ribogreen Assay (Invitrogen Life Technologies, Carlsbad, Calif.).
(§2) For assaying adipocyte differentiation, expression of the four hallmark genes, HSL, aP2, Glut4, and PPARγ, as well as triglyceride (TG) accumulation and leptin secretion were measured in adipocytes transfected with the uniform 2′-MOE phosphorothioate (PS) oligomeric compounds previously described. Cells are lysed on day nine post-transfection, in a guanadinium-containing buffer and total RNA is harvested. Real-time PCR is performed (Applied Biosystems, Prism 7700) on the total RNA using the following primer/probe sets for the adipocyte differentiation hallmark genes: (aP2): forward 5′-GGTGGTGGAATGCGTCATG-3′ (SEQ ID NO: 746), reverse 5′-[…]-3′ (SEQ ID NO: 747), probe 5′-FAM-[…]-TAMRA-3′ (SEQ ID NO: 748); (Glut4): forward 5′-GGCCTCCGCAGGTTCTG-3′ (SEQ ID NO: 749), reverse 5′-[…]-3′ (SEQ ID NO: 750), probe 5′-FAM-[…]-TAMRA-3′ (SEQ ID NO: 751); (HSL): forward 5′-ACCTGCGCACAATGACACA-3′ (SEQ ID NO: 752), reverse 5′-[…]-3′ (SEQ ID NO: 753), probe 5′-FAM-[…]-TAMRA-3′ (SEQ ID NO: 754); (PPAR-γ): forward 5′-[…]-3′ (SEQ ID NO: 755), reverse 5′-[…]-3′ (SEQ ID NO: 756), probe 5′-FAM-[…]-TAMRA-3′ (SEQ ID NO: 757). The amount of total RNA in each sample is determined using a Ribogreen Assay (Molecular Probes, Eugene, Oreg.), and expression levels of the adipocyte differentiation hallmark genes were normalized to total RNA.

[2] = system: Glut4; test: Glut4 mRNA expression in adipocytes (real-time PCR)
Experimental: as §1, §2

[3] = system: adipocytes; test: Triglyceride accumulation assay in adipocytes
Experimental: The triglyceride accumulation assay measures the synthesis of triglyceride by adipocytes. Triglyceride accumulation is measured using the Infinity™ Triglyceride reagent kit (Sigma-Aldrich, St. Louis, Mo.). On day nine post-transfection, cells are washed and lysed at room temperature, and the triglyceride assay reagent is added. Triglyceride accumulation is measured based on the amount of glycerol liberated from triglycerides by the enzyme lipoprotein lipase. Liberated glycerol is phosphorylated by glycerol kinase, and hydrogen peroxide is generated during the oxidation of glycerol-1-phosphate to dihydroxyacetone phosphate by glycerol phosphate oxidase. Horseradish peroxidase (HRP) uses H2O2 to oxidize 4-aminoantipyrine and 3,5 dichloro-2-hydroxybenzene sulfonate to produce a red-colored dye. Dye absorbance, which is proportional to the concentration of glycerol, is measured at 515 nm using an UV spectrophotometer. Glycerol concentration is calculated from a standard curve for each assay, and data are normalized to total cellular protein as determined by a Bradford assay (Bio-Rad Laboratories, Hercules, Calif.).
An increase in triglyceride content is another well-established marker for adipocyte differentiation. The triglyceride accumulation assay measures the synthesis of triglyceride by adipocytes. Triglyceride accumulation was measured using the Infinity™ Triglyceride reagent kit (Sigma-Aldrich, St. Louis, Mo.). Human white preadipocytes (Zen-Bio Inc., Research Triangle Park, N.C.) were grown in preadipocyte media (ZenBio Inc.). One day before transfection, 96-well plates were seeded with 3000 cells/well. Cells were transfected according to standard published procedures with 250 nM oligomeric compound in LIPOFECTIN™ (Invitrogen Corporation, Carlsbad, Calif.) (Monia et al., J. Biol. Chem. 1993 268(19):14514-22). Oligomeric compounds were tested in triplicate on each 96-well plate, and the effects of TNF-α, a positive drug control that inhibits adipocyte differentiation, were also measured in triplicate. Negative and transfectant-only controls may be measured up to six times per plate. After the cells have reached confluence (approximately three days), they were exposed to differentiation media (Zen-Bio, Inc.) containing a PPAR-γ agonist, IBMX, dexamethasone, and insulin for three days. Cells were then fed adipocyte media (Zen-Bio, Inc.), which was replaced at 2 to 3 day intervals. […] Triglyceride accumulation was measured based on the amount of glycerol liberated from triglycerides by the enzyme lipoprotein lipase. Liberated glycerol is phosphorylated by glycerol kinase, and hydrogen peroxide is generated during the oxidation of glycerol-1-phosphate to dihydroxyacetone phosphate by glycerol phosphate oxidase. Horseradish peroxidase (HRP) uses H2O2 to oxidize 4-aminoantipyrine and 3,5 dichloro-2-hydroxybenzene sulfonate to produce a red-colored dye. Dye absorbance, which is proportional to the concentration of glycerol, was measured at 515 nm using an UV spectrophotometer. Glycerol concentration was calculated from a standard curve for each assay, and data were normalized to total cellular protein as determined by a Bradford assay (Bio-Rad Laboratories, Hercules, Calif.). Results are expressed as a percent±standard deviation relative to transfectant-only control.

[4] = system: aP2; test: aP2 mRNA expression in adipocytes (real-time PCR); settings: for aP2 mRNA: Table 75
Experimental: as §1, §2

[5] = system: HSL; test: HSL mRNA expression in adipocytes (real-time PCR)
Experimental: as §1, §2

[6] = Table 18, differentiating adipocytes, control = treatment with ISIS 342673
[7] = differentiating adipocytes transfected with oligomeric compound, Table 75
[8] = differentiating adipocytes transfected with oligomeric compound

Substance | PPAR gamma mRNA [1, 6] | PPAR gamma mRNA [1, 7] | GLUT4 mRNA [2, 6] | GLUT4 mRNA [2, 7] | TG (triglyceride accumulation) [3, 6] | TG (triglyceride accumulation) [3, 7] | AP2 mRNA [4, 6] | aP2 mRNA [4, 8] | HSL mRNA [5, 6] | HSL mRNA [5, 7] | PPAR gamma mRNA [1, 8] | GLUT4 mRNA [2, 8] | TG (triglyceride accumulation) [3, 8] | AP2 mRNA [4, 8] | HSL mRNA [5, 8]
328103 (antisense e[5mC]*e[5mC]*e[5mC]*eA*eA*eT*eA*eT*e[5mC]*eA*eA*eA*e[5mC]*eA*eT*eA*eT*e[5mC]*eA) [compound 328103] | 74.3 percentage of control | 83 percentage of untreated control (UTC) | 94.3 percentage of control | 86 percentage of untreated control (UTC) | 110.2 percentage of control | 113 percentage of untreated control (UTC) | 83.2 percentage of control | 96 percentage of untreated control (UTC) | 82.5 percentage of control | 87 percentage of untreated control (UTC) |  |  |  |  | 
328104 (antisense eT*eA*eT*eG*eA*eT*eA*eG*e[5mC]*eT*eT*e[5mC]*e[5mC]*e[5mC]*e[5mC]*eA*eT*eG*eT*eA*eA) [compound 328104] | 90.4 percentage of control | 73 percentage of untreated control (UTC) | 119.1 percentage of control | 83 percentage of untreated control (UTC) | 122.6 percentage of control | 64 percentage of untreated control (UTC) | 102.2 percentage of control | 94 percentage of untreated control (UTC) | 98.2 percentage of control | 81 percentage of untreated control (UTC) |  |  |  |  | 
328106 (antisense eA*eT*eT*eG*eA*eT*eG*e[5mC]*eG*e[5mC]*e[5mC]*eA*eT*eT*eT*eG*eG*e[5mC]*e[5mC]*eT*eA) [compound 328106] | 90.7 percentage of control | 81 percentage of untreated control (UTC) | 105.7 percentage of control | 79 percentage of untreated control (UTC) | 90.5 percentage of control | 70 percentage of untreated control (UTC) | 88.8 percentage of control | 91 percentage of untreated control (UTC) | 94.9 percentage of control | 86 percentage of untreated control (UTC) |  |  |  |  | 
328107 (antisense e[5mC]*eT*eG*eT*eG*eA*e[5mC]*eT*eT*e[5mC]*eT*e[5mC]*eT*eA*eT*e[5mC]*eT*eG*e[5mC]*e[5mC]*eT) [compound 328107] | 79.3 percentage of control | 71 percentage of untreated control (UTC) | 72.5 percentage of control | 52 percentage of untreated control (UTC) | 66.7 percentage of control | 51 percentage of untreated control (UTC) | 67.5 percentage of control | 68 percentage of untreated control (UTC) | 61.0 percentage of control | 55 percentage of untreated control (UTC) |  |  |  |  | 
328108 (antisense eA*eA*eA*e[5mC]*eT*eT*eG*eT*eT*eA*eA*eT*eT*eG*eA*e[5mC]*eT*eG*eT*e[5mC]*eA) [compound 328108] | 84.0 percentage of control | 72 percentage of untreated control (UTC) | 94.9 percentage of control | 65 percentage of untreated control (UTC) | 89.6 percentage of control | 79 percentage of untreated control (UTC) | 83.7 percentage of control | 87 percentage of untreated control (UTC) | 90.1 percentage of control | 75 percentage of untreated control (UTC) |  |  |  |  | 
328109 (antisense eA*eA*eA*eG*eA*eA*eG*eT*eA*eT*eA*eT*eG*e[5mC]*eA*eT*eA*eG*eG*eA*eA) [compound 328109] | 96.1 percentage of control | 69 percentage of untreated control (UTC) | 106.6 percentage of control | 55 percentage of untreated control (UTC) | 84.9 percentage of control | 23 percentage of untreated control (UTC) | 84.9 percentage of control | 68 percentage of untreated control (UTC) | 86.9 percentage of control | 62 percentage of untreated control (UTC) |  |  |  |  | 
328112 (antisense eA*eT*e[5mC]*eA*eT*eT*eA*e[5mC]*eT*eG*eG*eA*eT*eT*eG*e[5mC]*eT*eG*eT*eA*eA) [compound 328112] | 102.4 percentage of control |  | 122.5 percentage of control |  | 98.1 percentage of control |  | 99.1 percentage of control |  | 101.2 percentage of control |  | 79 percentage of untreated control (UTC) | 97 percentage of untreated control (UTC) | 92 percentage of untreated control (UTC) | 73 percentage of untreated control (UTC) | 89 percentage of untreated control (UTC)
328113 (antisense e[5mC]*eA*eA*eA*eA*eA*eT*eT*eA*eT*e[5mC]*eA*eG*e[5mC]*e[5mC]*eA*eG*eT*eT*eT*eA) [compound 328113] | 93.8 percentage of control | 85 percentage of untreated control (UTC) | 99.9 percentage of control | 78 percentage of untreated control (UTC) | 80.8 percentage of control | 74 percentage of untreated control (UTC) | 84.5 percentage of control | 87 percentage of untreated control (UTC) | 90.6 percentage of control | 83 percentage of untreated control (UTC) |  |  |  |  | 
